Drawing on patent publication US7015236B2, “N-heteroarylnicotinamide derivatives” (Sankyo Agro Company, Limited, priority 2001, dated 2006), this text covers mortality for 19 molecules.

The assay relates to green peach aphid (Myzus persicae). As to the kind of experiment: Insecticidal test for green peach aphid (100 ppm), Test Example 1. The class given is in vivo. Conditions: 120 h. Here is the method:
Insecticidal test for green peach aphid (Myzus persicae) (100 ppm)
Water (30 ml) was put into a beaker, and a leaf of Komatsuna (Brassica var. rapa) was placed within the beaker such that the stem was immersed in water. On the leaf of Komatsuna, five green peach aphids were released and allowed to fertilize. Two days after the releasing, imagoes were removed and the number of larvae was counted.
A surfactant Newcol NE-710F (trademark, produced by Nippon Nyukazai Co., Ltd., 2%) was dissolved in aqueous acetone (95% aqueous solution, 98%) to prepare solution 1. Next, a dispersant Gousenol GLO5-S (trademark, produced by Nippon Nyukazai Co., Ltd., 0.2% aqueous solution, 0.2%) was dissolved in water (99.8%) to prepare solution 2.
To each of the compounds (8 mg) of the present invention, the above solution 1 (0.4 ml), the above solution 2 (0.4 ml) and water (8 ml) were added. Further, the compounds of the present invention were each diluted with water so that the concentration of each compound was 100 ppm {as a spreading agent, Gramin S (trademark, produced by Sankyo Co., Ltd.) was added so as to have a concentration of 0.01%}.
The above chemical liquid (8 ml) was sprayed on the leaf of Komatsuna by use of a rotary spraying tower. The leaf of Komatsuna was put back in the beaker. Then, the beaker was placed in a thermostatic chamber of 25° C. for 16 hours in the light and for 8 hours in the dark. 5 Days after the spraying, the number of dead insects was counted to calculate the mortality (%).

[1] abbreviates: 100 ppm spray on Komatsuna leaf, larvae, counted 5 days after spraying, 25° C., read-out: mortality (%).

Where two headings read alike, the source gives them in different places. Where only a bound is given, the exact number is not on record here.

As to `CCOCN(C(=O)c1cnccc1C(F)(F)F)c1cc(C)no1` [Example 2, N-Ethoxymethyl-N-(3-methyl-5-isoxazolyl)-4-(trifluoromethyl)nicotinamide], the mortality at 100 ppm under setting [1] was no less than 95%.

On to `Cc1noc(NC(=O)c2cnccc2C(F)(F)F)c1Cl` [Example 3, N-(4-Chloro-3-methyl-5-isoxazolyl)-4-(trifluoromethyl)nicotinamide], for which the mortality at 100 ppm under setting [1] was no less than 95%.

Take `CCc1cc(NC(=O)c2cnccc2C(F)(F)F)on1` [Example 5, N-(3-Ethyl-5-isoxazolyl)-4-(trifluoromethyl)nicotinamide]: the mortality at 100 ppm under setting [1] was no less than 95%.

Turning to `CC(C)c1cc(NC(=O)c2cnccc2C(F)(F)F)on1` [Example 6, N-(3-Isopropyl-5-isoxazolyl)-4-(trifluoromethyl)nicotinamide], the mortality at 100 ppm under setting [1] is no less than 95%.

For `O=Cc1cc(NC(=O)c2cnccc2C(F)(F)F)on1` [Example 7, N-(3-Formyl-5-isoxazolyl)-4-(trifluoromethyl)nicotinamide], the mortality at 100 ppm under setting [1] is no less than 95%.

In turn, `O=C(Nc1cc(C=NO)no1)c1cnccc1C(F)(F)F` [Example 8, N-(3-Hydroxyiminomethyl-5-isoxazolyl)-4-(trifluoromethyl)nicotinamide] returned a mortality at 100 ppm of no less than 95%.

As to `N#Cc1cc(NC(=O)c2cnccc2C(F)(F)F)on1` [Example 9, N-(3-Cyano-5-isoxazolyl)-4-(trifluoromethyl)nicotinamide], the mortality at 100 ppm under setting [1] is no less than 95%.

Consider `COCc1cc(NC(=O)c2cnccc2C(F)(F)F)on1` [Example 10, N-(3-Methoxymethyl-5-isoxazolyl)-4-(trifluoromethyl)nicotinamide], for which the mortality at 100 ppm under setting [1] is no less than 95%.

`O=C(Nc1oncc1Cl)c1cnccc1C(F)(F)F` [Example 11, N-(4-Chloro-5-isoxazolyl)-4-(trifluoromethyl)nicotinamide]: the mortality at 100 ppm under setting [1] is no less than 95%.

Consider `O=C(Nc1onc(C2CC2)c1Cl)c1cnccc1C(F)(F)F` [Example 12, N-(4-Chloro-3-cyclopropyl-5-isoxazolyl)-4-(trifluoromethyl)nicotinamide], for which the mortality at 100 ppm under setting [1] was no less than 95%.

As to `COCc1noc(NC(=O)c2cnccc2C(F)(F)F)c1Cl` [Example 13, N-(4-Chloro-3-methoxymethyl-5-isoxazolyl)-4-(trifluoromethyl)nicotinamide], the mortality at 100 ppm under setting [1] was no less than 95%.

In the case of `Cc1noc(NC(=O)c2cnccc2C(F)(F)F)c1Br` [Example 14, N-(4-Bromo-3-methyl-5-isoxazolyl)-4-(trifluoromethyl)nicotinamide], under setting [1], the mortality at 100 ppm is no less than 95%.

For the molecule `Cc1cc(N(C)C(=O)c2cnccc2C(F)(F)F)on1` [Example 16, N-Methyl-N-(3-methyl-5-isoxazolyl)-4-(trifluoromethyl)nicotinamide], the mortality at 100 ppm under setting [1] is no less than 95%.

Turning to `Cc1cc(N(CC#N)C(=O)c2cnccc2C(F)(F)F)on1` [Example 19, N-Cyanomethyl-N-(3-methyl-5-isoxazolyl)-4-(trifluoromethyl)nicotinamide], the mortality at 100 ppm under setting [1] was no less than 95%.

With `CSCN(C(=O)c1cnccc1C(F)(F)F)c1cc(C)no1` [Example 20, N-(3-Methyl-5-isoxazolyl)-N-methylthiomethyl-4-(trifluoromethyl)nicotinamide], the mortality at 100 ppm under setting [1] was no less than 95%.

As for `Cc1noc(NC(=O)c2cnccc2C(F)(F)F)n1` [Example 21, N-(3-Methyl-[1,2,4]oxadiazol-5-yl)-4-(trifluoromethyl)nicotinamide], the mortality at 100 ppm under setting [1] is no less than 95%.

Regarding `N#Cc1noc(NC(=O)c2cnccc2C(F)(F)F)c1Cl` [Example 22, N-(4-Chloro-3-cyano-5-isoxazolyl)-4-(trifluoromethyl)nicotinamide], the mortality at 100 ppm under setting [1] is no less than 95%.

With `N#Cc1noc(NC(=O)c2cnccc2C(F)(F)F)c1F` [Example 23, N-(4-Fluoro-3-cyano-5-isoxazolyl)-4-(trifluoromethyl)nicotinamide], the mortality at 100 ppm under setting [1] was no less than 95%.

For the molecule `O=C(Nc1oncc1Br)c1cnccc1C(F)(F)F` [Example 24, N-(4-Bromo-5-isoxazolyl)-4-(trifluoromethyl)nicotinamide], under setting [1], the mortality at 100 ppm is no less than 95%.

By mortality is commonly meant the percentage killed.
